Reference: US8901120B2, “Substituted N-phenylpyrimidin-2-amine analogs as inhibitors of the Axl kinase” (University of Utah Research Foundation, priority 2011, dated 2014)

Key:
[1] = system: phosphorylated Akt (Ser473); assay: GAS6-Axl signalling assay, phosphorylated Akt; format: cell-based; conditions: Homo sapiens; PSN-1 and PL45 cells, in the presence of Gas6, FIG. 8A; read-out: IC50, inhibition of phosphorylated Akt levels
Description: (§1) Cell lines were seeded in 1 ml of the appropriate growth media with 10% FBS into 6-well plates (8×10^5 cells/well) and incubated overnight at 37° C. and 5% CO2. The following day, serum-containing growth media was replaced by serum-free media and incubated for 4 hr, and then test compounds were added to the cells at desired concentrations and incubated for an additional 2 hr. To stimulate Axl signaling, Gas6 was added to each well to a concentration of 3 μg/ml and incubated for 10 min. The cells were lysed immediately and the lysates used in a multiplex ELISA kit (Meso Scale Discovery, Gaithersburg, Md.) to quantitate the phosphorylated AKT (at position Ser473′ “pAkt”) or phosphorylated Axl (“pAxl”).
To further explore the activity of a representative compound, 2-((5-chloro-2-((4-((4-methylpiperazin-1-yl)methyl)phenyl)amino)pyrimidin-4-yl)amino)-N,N-dimethylbenzenesulfonamide, of inhibiting Axl in a cell line system, the effect of the test compound on Akt phosphorylation (at the Ser473 position) was determined. The effect on Akt phosphorylation was assessed in two cell-lines (see FIG. 8A): PSN-1 and PL45. The overall method was as described above. Briefly, the cells were treated as indicated and lysates from these treatments were analyzed for phosphorylated Akt (Ser473) as described above.

[2] = system: PSN-1 cells; assay: Tumor xenograft animal model; format: in vivo, mouse; conditions: PSN-1 xenograft, 50 mg/kg oral gavage daily (M-F)
Description: The in vivo activity of the foregoing compound was assessed in a tumor xenograft model in mouse. PSN-1 cells were cultured as described above and harvested. Cells (2 to 5×10^6 in 100 μl culture media) were implanted subcutaneously in the right hind flank of athymic nu/nu nude mice (5 to 6 weeks old, 18-22 g). Following implantation, the tumors are allowed to grow to 100 mm^3 before the animals are randomized into treatment groups (vehicle and test compound). Day 1 of study corresponds to the day that the animals receive their first dose of test compound (2-((5-chloro-2-((4-((4-methylpiperazin-1-yl)methyl)phenyl)amino)pyrimidin-4-yl)amino)-N,N-dimethylbenzenesulfonamide). The vehicle for this study was 5% EtOH, 45% PEG 400, and 50% water, and animals were dosed with either vehicle or test compound dissolved in this vehicle by oral gavage. The dose level was 50 mg/kg and dosing frequency was daily (M-F) with the test compound with recovery on the weekend.
The test compound was efficacious in limiting tumor growth, achieving about a 50% reduction in tumor volume at this dose level during this dosing period (FIG. 15).

[3] = Pharmacokinetics after oral dosing; format: in vivo; conditions: mouse, mice, 50 mg/kg orally, plasma
Description: Mice were dosed orally with 50 mg/kg of the title compound. Blood was collected at the indicated time points (see FIG. 16).

[4] = system: phosphorylated Axl (pAxl); assay: GAS6-Axl signalling assay, autophosphorylation of Axl; format: cell-based, Human; conditions: pancreatic cancer cell lines, GAS6 stimulation, FIG. 8B
Description: as §1

[5] = system: Axl and the related members of the TAM family of kinases; assay: Kinase profiling, Axl and TAM family; format: biochemical; conditions: 200 nM test compound, ATP at Km apparent, FIG. 9
Description: (§2) The specificity of kinase inhibition was assessed with a representative compound, 2-((5-chloro-2-((4-((4-methylpiperazin-1-yl)methyl)phenyl)amino)pyrimidin-4-yl)amino)-N,N-dimethylbenzenesulfonamide, by determining the activity of this test compound against a panel of protein kinases. Kinase profiling was performed against a focus panel of kinases relevant to PDK1 signaling and other known oncogenic kinases. The panel comprised 75 distinct protein kinases, and data are shown for a subset of 39 kineases (see FIG. 9). […] The results from this screen confirmed good activity against Axl and the related members of the TAM family of kinases.

[6] = system: Aurora family of kinases; assay: Kinase profiling, Aurora family; format: biochemical; conditions: 200 nM test compound, ATP at Km apparent, FIG. 9
Description: as §2

[7] = system: JAK family of kinases; assay: Kinase profiling, JAK family; format: biochemical; conditions: 200 nM test compound, ATP at Km apparent, FIG. 9
Description: as §2

[8] = system: pancreatic cancer cells; assay: Cell migration assay (collagen I Platypus plates); format: cell-based; conditions: 18 hours migration, with Gas6, FIG. 10
Description: In this system, a gel prevents attachment of cells in a circle. The gel dissolves by exposure to the media, allowing cells to migrate into the open area. Cells migrated for 18 hours before fixation and staining. The extent of cell migration was determined by measuring the open surface in the inner circle of the well.

[9] = system: sAxl in PL45 and PSN-1 cells; assay: Release of sAxl into cell culture media (ELISA); format: cell-based, Human; conditions: PL45 and PSN-1, serum-free, 24 hours, vs vehicle, FIG. 11
Description: Cell lines were plated and incubated overnight as described above. The following day the media was changed to serum-free and the cells were treated as indicated as indicated. After 24 hours, the media from the treatments were analyzed for sAxl (R&D Systems, Minneapolis, Minn.).
The proteolytic processing of the extracellular domain of the Axl receptor is a known event downstream of Axl activation and results in the release of soluble Axl (sAxl) into the cell culture media (in vitro) or into the blood stream (in vivo).

## CN1CCN(Cc2ccc(Nc3ncc(Cl)c(Nc4ccccc4S(=O)(=O)N(C)C)n3)cc2)CC1 [2-((5-chloro-2-((4-((4-methylpiperazin-1-yl)methyl)phenyl)amino)pyrimidin-4-yl)amino)-N,N-dimethylbenzenesulfonamide]
[1]
  IC50: ~0.3 µM
[2]; FIG. 14
  impact on body weight: no apparent impact
[2]; FIG. 15
  reduction in tumor volume: ~50%
[3]
  AUC(0-t): 0.507 µg·h/mL
  Cmax: 0.604 µg/mL
  Tmax: 15 min
  half-life: 66 min
[4]
  inhibition of autophosphorylation of Axl: dramatically inhibited
[5]
  activity against Axl and TAM family kinases in kinase profiling: good activity
[6]
  activity against Aurora family kinases in kinase profiling: significant activity
[7]
  activity against JAK family kinases in kinase profiling: significant activity
[8]
  inhibition of Gas6-induced migration and invasion: inhibited
[9]
  reduction in sAxl levels in conditioned media: significant dose-dependent reductions
